In patent publication US20090232735A1, “USE OF FRUCTOSE-BASED THERAPIES FOR THE TREATMENT OF CANCER” (CEDARS-SINAI MEDICAL CENTER, priority 2005, published 2009):

Assays:
Format in all cases: cell-based, human
[1] = tested on: PANC-1 pancreatic cancer cells; assay: PANC-1 pancreatic cancer cell proliferation (MTS assay)
Protocol: FIG. 13 depicts higher proliferation rates in pancreatic cancer cells in fructose (5.5 mM) than glucose (5.5 mM) containing medium in accordance with an embodiment of the present invention. PANC-1 cells were pre-incubated in 2 mM glucose, after which they were plated in 5.5 mM fructose or glucose for times between 12-72 h, after which proliferative rates were measured using an MTS assay. Proliferative rates are expressed as the percentage difference between cells grown in 5.5 mM fructose versus 5.5 mM glucose. p<0.01 for times>48 h.
FIG. 14 depicts proliferation rates of pancreatic cells in different fructose or glucose concentrations in accordance with an embodiment of the present invention. PANC-1 cells were plated in a range of fructose or glucose concentrations (5-25 mM) for 72 h, after which proliferative rates were measured using an MTS assay. *, p<0.05 for concentrations between 5-25 mM fructose versus glucose.
FIG. 17 depicts cell proliferation regardless of co-existent glucose concentration in accordance with an embodiment of the present invention. PANC-1 cells were pre-incubated in 2 mM glucose prior to treatment with a range of concentrations (0-15 mM) mixed with a range of fructose concentrations (0-15 mM) for 72 h. PANC-1 cell proliferative rates were then measured using the MTS assay (absorbance in arbitrary units).
FIG. 35 depicts inhibition of pancreatic cancer PANC-1 cell proliferation by incubation with the transketolase inhibitor, oxythiamine (0.5-2 mM) for 72 h in accordance with an embodiment of the present invention. Proliferative rates were measured using the MTS proliferation assay.
Standard media for maintenance cancer cell line culture, including pancreatic cancer cells such as PANC-1 cells contain either low—(5-7 mM), or high—(12-25 mM) glucose concentrations. Clearly, apart from the setting of hyperglycemia, as in patients with diabetes, the glucose concentrations in which pancreatic cancer cells are maintained in vitro are much higher than normal physiological conditions, which range between 2-5 mM glucose. […] Therefore, the inventors first pre-treated the pancreatic cancer cells overnight in standard DMEM medium containing low physiological glucose concentrations (2 mM glucose), and standard 10% fetal bovine serum. The pancreatic cancer cells were then incubated for times between 12, and 96 hours in standard DMEM medium containing 10% fetal bovine serum, and 5.5 mM glucose or 5.5 mM fructose. Proliferative rates were then measured in replicate (minimum of 6) aliquot wells of the pancreatic cancer cells, and the change (expressed as percent increase) in proliferative rates compared between cells grown in glucose, or fructose containing medium.
This first result intrigued the inventors, but given there is little documentation regarding physiological fructose concentrations, the inventors first considered that the “apparent” pro-proliferative effects of fructose were simply a consequence of the highly stylized in vitro experimental conditions, and that if the pancreatic cancer cells were cultured in higher glucose concentrations, this would result in similar proliferative rates to those the inventors observed following culture in 5.5 mM fructose. Therefore, in the next experiments, the inventors compared proliferative rates of the PANC-1 pancreatic cancer cells following culture for 72 h in a range of fructose, and glucose concentrations (2-25 mM). This timepoint was chosen as the inventors had seen maximal pancreatic cancer cell proliferation in 5.5 mM fructose at 72 h. […] While not wishing to be bound by any particular theory, the inventors believe that this latter finding may be because the PANC-1 cells are proliferating at close to maximal capacity by 72 h, once they are exposed to comparatively low fructose concentrations (5 mM). MTS assay was employed to measure pancreatic cancer cell proliferative rates, which utilizes mitochondrial oxidation to quantify cell proliferation. […]

[2] = tested on: fructokinase-1 (FK-1) mRNA; assay: Fructokinase-1 mRNA by Northern blot in MCF-7 cells; conditions: MCF-7, 5.5 mM fructose, 24 h
Protocol: FIG. 9 depicts Northern blot analysis of fructokinase-1 mRNA levels in MCF-7 breast cancer cells in accordance with an embodiment of the present invention. 20 μg total RNA was used to measure FK-1 mRNA levels in the MCF-7 cells following growth in 2 mM glucose, 5.5 mM glucose, or 5.5 mM fructose for 24 h. FK-1 was also detected in human liver, with lower levels in muscle tissue.
In additional studies, the inventors used Northern blot to confirm significant FK-1 mRNA expression in the breast cancer cells. As depicted in FIG. 9, fructokinase-1 mRNA expression was detected in MCF-7 cells cultured in 2, and 5.5 mM glucose, and 5.5 mM fructose, and in human muscle and liver tissue.

GLUT-5 mRNA = GLUT-5 mRNA by quantitative real-time RT-PCR in MCF-7 cells
Protocol: FIG. 10 depicts GLUT-5 expression levels in accordance with an embodiment of the present invention. MCF-7 breast cancer cells were incubated in 2 mM glucose (Glu), 5.5 mM glucose (Glu) or 5.5 mM fructose (Fru) for 4 or 24 hours, after which GLUT-5 expression was quantified using real-time RT-PCR, normalized to GAPDH levels, and expressed as fold-increase compared to GLUT-5 levels detected in MCF-7 cells cultured in 2 mM glucose for a similar time period.
Cellular fructose uptake is facilitated by a member of solute carrier family 2, called glucose transporter type 5 (GLUT-5). Following incubation of MCF-7 breast cancer cells in 2 mM, 5.5 mM glucose or 5.5 mM fructose for […], total RNA was harvested, and analyzed by quantitative real-time RT-PCR analysis using GLUT-5 specific primers to quantify GLUT-5 mRNA expression. GLUT-5 expression was normalized to GAPGH mRNA expression, and expressed as fold-change in comparison to control breast cancer cells incubated in 2 mM glucose for 4, and 24 hours.

[3] = tested on: AP1 activation in MCF-7 breast cancer cells; assay: ELISA-based transbinding AP1 assay in breast cancer cells; conditions: 5.5 mM sugar
Protocol: FIG. 12 depicts an increase in AP1 activation in fructose-treated cells in accordance with an embodiment of the present invention. MCF-7 breast cancer cells were incubated in 2 mM glucose, or 5 mM glucose or fructose for 24 h, after which nuclear extracts were incubated with a biotinylated AP-1 probe in binding buffer. AP-1/AP1 probe complexes were next conjugated to a streptavidin-coated assay plate and detected using an AP-1 specific antibody, followed by binding of a horseradish-peroxidase conjugated secondary antibody, and detection by a colorimetric reagent. *, p<0.001.
Although several signal transduction pathways are likely involved in the fructose-mediated enhanced breast cancer growth and while not wishing to be bound by any particular theory, the inventors believe that the MAP-kinase pathway is involved. The inventors have used Western blot analysis to examine the MAPK pathway in breast cancer cells incubated in 2 mM glucose, 5.5 mM glucose, and 5.5 mM fructose for 48 hours. […] Activation of MEK, and subsequently ERK results in phosphorylation of p90^Rsk, which leads to transcriptional activation of CREB and AP1, which bind to cAMP or AP1 response elements respectively, activating gene transcription and promoting cellular growth.

O=C(CO)[C@@H](O)[C@H](O)[C@H](O)CO [fructose]
difference in proliferative rates, fructose vs glucose ([1]; PANC-1, 5.5 mM fructose vs 5.5 mM glucose, 48 h): ~13%
higher proliferative rate, fructose vs glucose ([1]; PANC-1, 5.5 mM fructose vs 5.5 mM glucose, 72 h): 23%
proliferative rates in 5 mM fructose compared to 25 mM glucose ([1]; PANC-1, 72 h): higher proliferative rates
cell proliferation with admixed glucose (0-15 mM) and fructose (0-15 mM) ([1]; PANC-1, 72 h, fructose concentrations of 6 mM and above, regardless of glucose concentration): an increase in cell proliferation
FK-1 mRNA expression (Northern blot) [2]: Highest FK-1 expression
increase in GLUT-5 mRNA compared to cells in 5.5 mM glucose (GLUT-5 mRNA; MCF-7, 5.5 mM fructose, 24 hour incubation): two-fold increase
change in GLUT-5 mRNA expression (GLUT-5 mRNA; MCF-7, 4 hours, vs 2 mM glucose): no significant change
increase in AP1 activation [3]: 3 fold
